Measured values as given in the CheMixHub viscosity set.

Assay: xn = mol fraction of the nth substance listed
Details: 101.33 kPa

CCOCCO + CCCCCCC
viscosity [mPa·s]
Details | x1 = 0.1091 | x1 = 0.1973 | x1 = 0.299 | x1 = 0.4 | x1 = 0.5014 | x1 = 0.6074 | x1 = 0.6986 | x1 = 0.799 | x1 = 0.8989
298.15 K | 0.422 | 0.455 | 0.51 | 0.585 | 0.671 | – | 0.922 | 1.12 | 1.39
303.15 K | 0.398 | 0.428 | 0.478 | 0.541 | 0.619 | 0.673 | 0.843 | 1.013 | 1.247
308.15 K | 0.377 | 0.404 | 0.449 | 0.506 | 0.574 | 0.63 | 0.772 | 0.927 | 1.133
313.15 K | 0.355 | 0.382 | 0.422 | 0.472 | 0.535 | 0.592 | 0.713 | 0.844 | 1.026

CCOCCO + CCCCCCCC
viscosity [mPa·s]
Details | x1 = 0.0976 | x1 = 0.1994 | x1 = 0.3003 | x1 = 0.4001 | x1 = 0.5004 | x1 = 0.5944 | x1 = 0.6962 | x1 = 0.7983 | x1 = 0.8969
298.15 K | 0.524 | 0.566 | 0.619 | 0.687 | 0.772 | 0.87 | 1.003 | 1.179 | 1.421
303.15 K | 0.49 | 0.527 | 0.574 | 0.632 | 0.71 | 0.795 | 0.911 | 1.069 | 1.279
308.15 K | 0.463 | 0.494 | 0.538 | 0.591 | 0.657 | 0.732 | 0.834 | 0.972 | 1.155
313.15 K | 0.434 | 0.462 | 0.5 | 0.55 | 0.609 | 0.673 | 0.763 | 0.896 | 1.05

CCOCCO + CCCCCCCCC
viscosity [mPa·s]
Details | x1 = 0.098 | x1 = 0.2031 | x1 = 0.3023 | x1 = 0.4074 | x1 = 0.505 | x1 = 0.601 | x1 = 0.7022 | x1 = 0.8034 | x1 = 0.9003
298.15 K | 0.662 | 0.696 | 0.746 | 0.822 | 0.9 | 1.024 | 1.107 | 1.263 | 1.469
303.15 K | 0.62 | 0.646 | 0.69 | 0.753 | 0.821 | 0.929 | 1.005 | 1.137 | 1.316
308.15 K | 0.577 | 0.601 | 0.64 | 0.697 | 0.757 | 0.853 | 0.916 | 1.034 | 1.191
313.15 K | 0.537 | 0.558 | 0.596 | 0.642 | 0.698 | 0.778 | 0.837 | 0.939 | 1.075
